# In PMC7774954, “Interactomic affinity profiling by holdup assay: Acetylation and distal residues impact the PDZome-binding specificity of PTEN phosphatase” (PLoS ONE, 2020):
# *1 amine or outer side, *2 acyl side, *3 side chain or, on linkers, in order; H or OH if unused. Where a SMILES comes first, the peptide text is derived from it. The star is where a group is joined. X1 = O=C(CCCC[C@@H]1SC[C@@H]2NC(=O)N[C@@H]21)NCCCOCCOCCOCCCN*; Suc = O=C(CCC(=O)[*:2])[*:1]
# Tests used:
# [1] = test system: human PDZome; experiment: Promiscuity / specificity index from PDZome affinity profile (combined holdup and FP); type: binding; details: for Nb PDZ (BI): Val for BI=0.2; for Max Log(Kd): maximum over PDZome; for 1/2PDZ: number of PDZ, 1/2PDZ Min and Max; for number of PDZ domains above the half-maximal binding affinity: relative to number of tested and validated PDZ domains
# Excerpt: Using the mean concentration obtained above for each of the different PTEN peptides, the experimental BI values recorded by holdup for all tested domain/peptide pairs were subsequently transformed into equilibrium dissociation constants. […] Thereafter, affinity data measured by FP assay were also included in the […] for the PDZ domains (MAST1-1, MAST2-1, SNX27-1, MAGI1-2 and GRID2IP-2) for which holdup data were missing according to the low quality score in the filtering step. These interaction data detected only by competitive FP and not by holdup represented 1 to 2 additional PDZ binders per PTEN construct. […] This transformation into affinity values makes then possible to compare binding affinity profiles obtained for different peptides and potentially different batches.
# The above described holdup-FP strategy delivers binding affinity constants, a universal chemical property. […] We then looked for a numerical parameter that would express, in a quantitative way, this specificity or promiscuity information. For this purpose, we calculated for each profile the difference between the maximal and the minimal significant affinity values detected by the assay, ΔGmax − ΔGmin. Next, we introduced a threshold affinity, called "half-maximal binding affinity" defined as follows: ΔGhalf = ΔGmin + (ΔGmax − ΔGmin)/2. […] Alternatively, the specificity index IS could be defined as 1 –IP. Therefore, the lower the promiscuity index, the higher the specificity index, the higher the specificity of the PBM for a limited number of selected domains across the PDZome.
# We probed the specificity index on the PDZome-binding profiles of the four PTEN peptides. […] This would indicate, in qualitative terms, that the PTEN_13 peptide selects PDZ domains in a more specific -less promiscuous- way than that of the three of other peptides. […] One should note that it was not possible to determine index uncertainty by error propagation starting from holdup data, since BI values have been recorded in singlicate. However, the dispersion of log(KD) values around the perfect theoretical correlation line in the correlation plot (Fig 5B) is representative of global IS uncertainty, which was therefore estimated by averaging the distances between the experimental dots and the theoretical diagonal. Details about uncertainties and Fisher’s test calculations are provided in Supp. Materials and S1 File.
# Uncertainty on IS was estimated according to several steps described below:
# - Since it’s not possible strictly talking to propagate uncertainty for data recorded in singlicate, we considered that log(KD) uncertainty is contained in the correlation plot [log(KD,HU) vs. log(KD,FP)] when comparing the experimental data with the perfect theoretical correlation (the dotted diagonal line).
# - Originally, we estimated the 1/2 PDZ index by counting the number of PDZ with a log(KD) value above the threshold calculated with the formulae developed in the manuscript. Then we did the same type of counting for [threshold value + log(KD) uncertainty] and for [threshold value - log(KD) uncertainty].
# - From the difference in the two counts is estimated the index uncertainty.
# Due to the low number of PDZ occurrences, a Fisher's exact test was preferred to estimate the p-value. Calculations were performed online with http://astatsa.com using default parameters.
# [2] = target: T1, DLG4 PDZ 1 (Homo sapiens, UniProt P78352); experiment: Holdup assay, DLG4-1; type: binding; details: for BI: DLG4-1
# T1 construct: made in house; host or cells: E. coli
# T1 sequence (P78352 65-151): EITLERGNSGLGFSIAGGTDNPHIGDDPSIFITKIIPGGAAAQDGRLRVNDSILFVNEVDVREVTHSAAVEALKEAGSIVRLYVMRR
# Procedure: (§1) The holdup assay was performed on a Tecan freedom Evo200 robot with 384-well plates in singlicate for the three 11-mer PTEN variants and the 13-mer PTEN peptide as described in [31, 32]. Briefly, prior to interaction assay, 2.5 μL of streptavidin resin was saturated in each well with 20 μL of biotinylated PBM peptides (42 μM) and then washed twice with an excess of free biotin, while the reference resin was incubated only with biotin. Right before the holdup experiment, the PDZ library was spiked with an internal standard of lysozyme. Then, the biotin- or PBM-saturated resin was incubated, each in a distinct well of a 384-well plate, with complete cell lysates diluted so that the concentration of the tag-PDZ present in the crude extract is adjusted at 4 μM. After a sufficient time to reach complex equilibrium (15 min.), a fast and mild filtration step is performed and the tag-PDZ concentrations were measured by capillary electrophoresis instrument (LabChip GXII, PerkinElmer, Massachusets, USA). Standard markers were used to convert migration time into molecular weight on the LabChip software and inappropriate molecular weight markers were corrected or excluded.
# (§2) For filtered data, the BI was extracted with the following equation (Eq 1) that estimates the depleted fraction after superimposition of the sample and reference electropherograms: BI=Iref−Ilig/Iref (1) where Iref and Ilig are the intensities of the tag-PDZ peaks measured, for each PDZ domain/PBM peptide interaction pair, in the biotin reference and the PBM electropherograms, respectively.
# BIs were transformed into dissociation constants (KD) using the following formula: KD=([PDZtot]−BI·[PDZtot])·([PBMtot]−BI·[PDZtot])/BI·[PDZtot] (2) where [PDZtot] and [PBMtot] correspond to the total concentrations of the PDZ domain (usually around 4 μM) and the PBM peptide used during the assay. Since the PBMtot concentration in the resin during the holdup assay parameter may differ from one peptide to another and remains unknown, it is impossible to directly convert BI values into KD constants. We systematically determined the KD constants for a subset of PDZ/PBM pairs by competitive FP. […] For each PBM, the average peptide concentration was calculated after outlier rejection based on the absolute distances from the median as compared to three times the standard deviation (3σ rule), with never more than 2 values rejected.
# [3] = target: T2, MAGI1 PDZ 2 (Homo sapiens, UniProt Q96QZ7); experiment: Holdup assay, MAGI1-2; type: binding
# T2 construct: made in house; host or cells: E. coli
# T2 sequence (Q96QZ7 472-554 limits assumed): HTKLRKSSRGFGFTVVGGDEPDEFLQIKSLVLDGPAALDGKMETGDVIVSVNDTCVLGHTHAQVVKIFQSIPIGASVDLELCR
# Procedure: as §1, §2
# BIs were transformed into dissociation constants (KD) using the following formula: KD=([PDZtot]−BI·[PDZtot])·([PBMtot]−BI·[PDZtot])/BI·[PDZtot] […] We systematically determined the KD constants for a subset of PDZ/PBM pairs by competitive FP. […] For each PBM, the average peptide concentration was calculated after outlier rejection based on the absolute distances from the median as compared to three times the standard deviation (3σ rule), with never more than 2 values rejected.
# [4] = test system: CNKSR3-1; experiment: Holdup assay, CNKSR3-1; type: binding, human
# [5] = target: DLG1-1 (Homo sapiens, UniProt Q12959); experiment: Holdup assay, DLG1-1; type: binding
# [6] = test system: DLG5-3; experiment: Holdup assay, DLG5-3; type: binding, human
# [7] = test system: DVL1-1; experiment: Holdup assay, DVL1-1; type: binding, human
# [8] = test system: FRMPD1-1; experiment: Holdup assay, FRMPD1-1; type: binding, human
# [9] = test system: GRIP1-5; experiment: Holdup assay, GRIP1-5; type: binding, human
# [10] = test system: INADL-4; experiment: Holdup assay, INADL-4; type: binding, human
# [11] = test system: LIMK1-1; experiment: Holdup assay, LIMK1-1; type: binding, human
# [12] = target: MAGI1-5 (Homo sapiens, UniProt Q96QZ7); experiment: Holdup assay, MAGI1-5; type: binding
# MAGI1-5, sequence (Q96QZ7 970-1066): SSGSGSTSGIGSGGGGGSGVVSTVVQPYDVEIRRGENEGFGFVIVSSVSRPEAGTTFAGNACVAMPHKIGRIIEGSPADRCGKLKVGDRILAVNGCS
# [13] = target: MAGI2-5 (Homo sapiens, UniProt Q86UL8); experiment: Holdup assay, MAGI2-5; type: binding
# MAGI2-5, sequence (Q86UL8 whole entry, the tested form may be a part): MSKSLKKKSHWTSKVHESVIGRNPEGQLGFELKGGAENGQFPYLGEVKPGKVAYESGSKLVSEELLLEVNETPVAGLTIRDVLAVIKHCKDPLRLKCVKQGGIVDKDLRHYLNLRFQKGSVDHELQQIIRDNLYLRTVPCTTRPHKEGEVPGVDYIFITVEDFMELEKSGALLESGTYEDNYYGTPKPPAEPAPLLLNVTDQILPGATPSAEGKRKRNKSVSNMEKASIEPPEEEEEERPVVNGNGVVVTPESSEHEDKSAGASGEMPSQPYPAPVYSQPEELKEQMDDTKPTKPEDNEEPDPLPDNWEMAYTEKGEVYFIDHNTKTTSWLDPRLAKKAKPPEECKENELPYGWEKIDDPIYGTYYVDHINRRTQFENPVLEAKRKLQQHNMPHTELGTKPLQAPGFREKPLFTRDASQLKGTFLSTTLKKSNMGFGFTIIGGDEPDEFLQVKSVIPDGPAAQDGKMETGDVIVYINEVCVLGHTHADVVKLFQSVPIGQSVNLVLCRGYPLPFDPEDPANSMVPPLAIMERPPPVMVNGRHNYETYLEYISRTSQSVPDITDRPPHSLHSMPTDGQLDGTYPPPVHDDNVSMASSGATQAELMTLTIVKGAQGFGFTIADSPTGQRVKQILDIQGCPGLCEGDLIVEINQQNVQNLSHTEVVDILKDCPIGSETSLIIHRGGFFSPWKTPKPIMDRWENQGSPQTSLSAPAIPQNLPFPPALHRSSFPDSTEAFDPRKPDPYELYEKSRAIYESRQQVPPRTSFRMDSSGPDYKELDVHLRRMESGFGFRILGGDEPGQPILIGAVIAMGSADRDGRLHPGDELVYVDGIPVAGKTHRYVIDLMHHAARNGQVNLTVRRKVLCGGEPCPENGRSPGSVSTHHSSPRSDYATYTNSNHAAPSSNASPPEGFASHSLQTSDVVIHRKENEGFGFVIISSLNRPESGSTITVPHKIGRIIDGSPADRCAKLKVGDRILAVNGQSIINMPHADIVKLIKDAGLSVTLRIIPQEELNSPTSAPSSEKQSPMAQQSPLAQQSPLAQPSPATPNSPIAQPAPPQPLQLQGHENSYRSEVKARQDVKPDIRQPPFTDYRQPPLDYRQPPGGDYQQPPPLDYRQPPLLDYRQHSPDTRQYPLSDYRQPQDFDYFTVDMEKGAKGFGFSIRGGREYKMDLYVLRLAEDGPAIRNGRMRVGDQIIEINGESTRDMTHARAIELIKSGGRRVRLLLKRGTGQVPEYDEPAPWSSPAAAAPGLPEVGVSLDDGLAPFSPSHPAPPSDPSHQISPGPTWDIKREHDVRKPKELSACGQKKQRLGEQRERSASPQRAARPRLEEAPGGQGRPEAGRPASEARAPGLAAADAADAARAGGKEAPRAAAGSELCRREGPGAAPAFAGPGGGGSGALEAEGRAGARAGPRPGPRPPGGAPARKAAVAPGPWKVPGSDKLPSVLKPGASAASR
Compound,Nb PDZ (BI) [1],1/2PDZ [1],number of PDZ domains above the half-maximal binding affinity [1],BI [2],BI [3],BI [4],BI ([5]; DLG1-1),BI [6],LogKD [6],BI [7],LogKD [7],BI [8],LogKD [8],BI [9],LogKD [9],BI [10],BI [11],BI [12],Kd [12] [µM],BI [13],further results
CC[C@H](C)[C@H](NC(=O)[C@H](CCC(N)=O)NC(=O)[C@@H](NC(=O)[C@H](Cc1c[nH]cn1)NC(=O)[C@H](CCC(N)=O)NC(=O)[C@H](CC(=O)O)NC(=O)[C@H](CCC(=O)O)NC(=O)[C@H](CC(=O)O)NC(=O)CCC(=O)NCCCOCCOCCOCCCNC(=O)CCCC[C@@H]1SC[C@@H]2NC(=O)N[C@@H]21)[C@@H](C)O)C(=O)N[C@H](C(=O)N[C@@H](CCCCN)C(=O)N[C@H](C(=O)O)C(C)C)[C@@H](C)O [PTEN_11],19,9,9,0.103,0.077,0.028,0.109,0.034,3.519,-0.007,3.519,0.017,3.519,0.021,3.519,-0.049,-0.066,0.536,27.6,0.214,Max Log(Kd) [1]: 4.90; LogKD [4]: 3.519; LogKD [10]: 3.519; LogKD [11]: 3.519; Kd [13]: 122 µM
CC[C@H](C)[C@H](NC(=O)[C@H](CCC(N)=O)NC(=O)[C@@H](NC(=O)[C@H](Cc1c[nH]cn1)NC(=O)[C@H](CCC(N)=O)NC(=O)[C@H](CC(=O)O)NC(=O)[C@H](CCC(=O)O)NC(=O)[C@H](CC(=O)O)NC(=O)[C@H](Cc1ccccc1)NC(=O)[C@@H]1CCCN1C(=O)CCC(=O)NCCCOCCOCCOCCCNC(=O)CCCC[C@@H]1SC[C@@H]2NC(=O)N[C@@H]21)[C@@H](C)O)C(=O)N[C@H](C(=O)N[C@@H](CCCCN)C(=O)N[C@H](C(=O)O)C(C)C)[C@@H](C)O [PTEN_13] ({X1-Suc}-PFDEDQHTQITKV-OH),25,4,4,0.077,-0.017,0.002,0.011,0.002,,-0.013,,0.081,,-0.033,,-0.084,-0.103,0.274,42.1,0.046,specificity (in words) ([1]; compared with the three 11-mer peptides): slight increased specificity; Max Log(Kd) [1]: 5.89; LogKD ([5]; DLG1-1): 3.826; LogKD [13]: 3.826
CC[C@H](C)[C@H](NC(=O)[C@H](CCC(N)=O)NC(=O)[C@@H](NC(=O)[C@H](Cc1c[nH]cn1)NC(=O)[C@H](CCC(N)=O)NC(=O)[C@H](CC(=O)O)NC(=O)[C@H](CCC(=O)O)NC(=O)[C@H](CC(=O)O)NC(=O)CCC(=O)NCCCOCCOCCOCCCNC(=O)CCCC[C@@H]1SC[C@@H]2NC(=O)N[C@@H]21)[C@@H](C)O)C(=O)N[C@H](C(=O)N[C@@H](CCCCNC(C)=O)C(=O)N[C@H](C(=O)O)C(C)C)[C@@H](C)O [PTEN_Ac],43,12,12,0.15,0.101,,0.168,-0.047,3.605,-0.016,3.605,-0.03,3.605,-0.054,3.605,-0.106,-0.047,0.647,13.9,0.148,LogKD [10]: 3.605; LogKD [11]: 3.605
CC[C@H](C)[C@H](NC(=O)[C@H](CCC(N)=O)NC(=O)[C@@H](NC(=O)[C@H](Cc1c[nH]cn1)NC(=O)[C@H](CCC(N)=O)NC(=O)[C@H](CC(=O)O)NC(=O)[C@H](CCC(=O)O)NC(=O)[C@H](CC(=O)O)NC(=O)CCC(=O)NCCCOCCOCCOCCCNC(=O)CCCC[C@@H]1SC[C@@H]2NC(=O)N[C@@H]21)[C@@H](C)O)C(=O)N[C@H](C(=O)N[C@@H](CCCNC(=N)N)C(=O)N[C@H](C(=O)O)C(C)C)[C@@H](C)O [PTEN_KR] ({X1-Suc}-DEDQHTQITRV-OH),38,9,9,0.229,,-0.031,0.215,-0.084,3.655,-0.056,3.655,-0.047,3.655,0.003,3.655,-0.04,-0.08,0.619,13.9,-0.074,Kd [2]: 81.1 µM; LogKD [4]: 3.655; Kd [5]: 88.1 µM; LogKD [10]: 3.655; LogKD [11]: 3.655; LogKD [13]: 3.655
